Here are results for 34 compounds from patent US9902696B2, “1,4-substituted piperidine derivatives” (Cephalon, Inc., priority 2015, dated 2018).

pIC50: −log10 of the molar value. Structures can show the parent of a compound that is named as a salt.

In one assay the target is T1, recombinant human baculovirus-expressed GST-tagged FASN (Homo sapiens, UniProt P49327).
T1 construct: GST
T1 sequence (P49327 whole entry): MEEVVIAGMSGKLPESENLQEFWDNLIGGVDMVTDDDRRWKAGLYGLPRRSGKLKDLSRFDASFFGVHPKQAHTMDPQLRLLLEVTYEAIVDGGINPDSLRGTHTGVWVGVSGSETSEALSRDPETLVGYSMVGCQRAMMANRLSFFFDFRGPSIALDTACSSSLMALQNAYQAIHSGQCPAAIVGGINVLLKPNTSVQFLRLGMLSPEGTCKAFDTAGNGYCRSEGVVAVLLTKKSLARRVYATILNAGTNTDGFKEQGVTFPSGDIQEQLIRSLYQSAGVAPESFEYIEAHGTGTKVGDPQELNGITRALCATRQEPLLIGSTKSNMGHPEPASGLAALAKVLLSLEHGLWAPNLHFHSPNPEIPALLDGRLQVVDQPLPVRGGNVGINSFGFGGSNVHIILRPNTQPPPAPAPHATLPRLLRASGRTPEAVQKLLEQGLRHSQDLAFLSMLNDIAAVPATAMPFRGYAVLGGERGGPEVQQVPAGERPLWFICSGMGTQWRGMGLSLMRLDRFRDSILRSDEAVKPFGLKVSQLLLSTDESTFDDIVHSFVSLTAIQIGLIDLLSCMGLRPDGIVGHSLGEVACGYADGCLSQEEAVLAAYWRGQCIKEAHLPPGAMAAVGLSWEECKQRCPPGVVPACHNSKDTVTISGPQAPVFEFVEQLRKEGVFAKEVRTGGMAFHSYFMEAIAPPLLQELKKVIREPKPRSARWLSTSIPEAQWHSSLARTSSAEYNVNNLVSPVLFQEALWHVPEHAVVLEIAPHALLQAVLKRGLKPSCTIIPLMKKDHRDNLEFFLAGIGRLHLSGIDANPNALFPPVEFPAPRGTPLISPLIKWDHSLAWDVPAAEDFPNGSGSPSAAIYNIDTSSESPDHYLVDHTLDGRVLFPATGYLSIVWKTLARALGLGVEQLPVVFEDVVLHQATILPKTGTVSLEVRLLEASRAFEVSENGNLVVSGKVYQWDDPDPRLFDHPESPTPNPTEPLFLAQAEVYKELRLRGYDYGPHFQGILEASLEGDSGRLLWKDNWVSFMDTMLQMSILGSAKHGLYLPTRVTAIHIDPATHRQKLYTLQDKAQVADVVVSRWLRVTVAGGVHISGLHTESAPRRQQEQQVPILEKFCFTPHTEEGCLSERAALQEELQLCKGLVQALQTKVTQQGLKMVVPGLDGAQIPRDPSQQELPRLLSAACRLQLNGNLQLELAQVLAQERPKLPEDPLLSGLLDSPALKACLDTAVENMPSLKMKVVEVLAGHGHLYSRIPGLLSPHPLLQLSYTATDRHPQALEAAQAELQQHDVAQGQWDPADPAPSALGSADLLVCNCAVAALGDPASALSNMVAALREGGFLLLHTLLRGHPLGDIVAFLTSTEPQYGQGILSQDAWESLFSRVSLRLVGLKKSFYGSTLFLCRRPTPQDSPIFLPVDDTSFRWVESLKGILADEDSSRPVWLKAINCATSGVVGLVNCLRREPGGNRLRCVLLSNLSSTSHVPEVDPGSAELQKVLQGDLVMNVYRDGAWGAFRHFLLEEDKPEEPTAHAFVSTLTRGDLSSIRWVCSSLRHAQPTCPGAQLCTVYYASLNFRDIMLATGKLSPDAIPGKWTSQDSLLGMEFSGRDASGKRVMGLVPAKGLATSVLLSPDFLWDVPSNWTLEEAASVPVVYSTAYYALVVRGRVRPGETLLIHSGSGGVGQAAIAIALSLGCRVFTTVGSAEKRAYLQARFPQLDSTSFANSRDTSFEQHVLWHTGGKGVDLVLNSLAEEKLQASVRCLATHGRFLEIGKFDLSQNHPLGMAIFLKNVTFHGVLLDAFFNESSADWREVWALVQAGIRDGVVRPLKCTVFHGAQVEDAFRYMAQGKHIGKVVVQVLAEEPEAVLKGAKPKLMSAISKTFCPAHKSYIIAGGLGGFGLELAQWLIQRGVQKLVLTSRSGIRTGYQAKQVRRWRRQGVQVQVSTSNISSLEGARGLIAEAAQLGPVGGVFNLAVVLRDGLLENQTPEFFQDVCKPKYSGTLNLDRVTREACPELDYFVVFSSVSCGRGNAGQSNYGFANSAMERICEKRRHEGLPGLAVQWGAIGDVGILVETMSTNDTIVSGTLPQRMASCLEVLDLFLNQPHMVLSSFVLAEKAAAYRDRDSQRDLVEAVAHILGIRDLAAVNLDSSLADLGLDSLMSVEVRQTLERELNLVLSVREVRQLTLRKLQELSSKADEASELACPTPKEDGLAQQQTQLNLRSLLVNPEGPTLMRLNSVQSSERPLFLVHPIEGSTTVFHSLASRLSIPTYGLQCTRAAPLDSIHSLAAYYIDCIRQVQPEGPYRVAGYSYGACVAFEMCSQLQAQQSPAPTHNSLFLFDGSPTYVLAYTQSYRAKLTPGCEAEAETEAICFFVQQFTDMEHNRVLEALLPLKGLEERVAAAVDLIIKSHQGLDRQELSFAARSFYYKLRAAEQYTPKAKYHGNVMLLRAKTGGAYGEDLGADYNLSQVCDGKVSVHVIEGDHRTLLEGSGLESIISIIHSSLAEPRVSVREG
Description: FASN enzyme activity assay, fluorescence-based detection of CoA with CPM. It is filed as biochemical. As to conditions: 5 nM FASN, 150 μM NADPH, 10 μM acetyl-CoA, 25 μM malonyl-CoA, 90 minutes incubation; read-out: IC50 data for Additional Compounds of Formulae I-V(a): Activity. The text has this: FASN Enzyme activity may be determined by detecting coenzyme A (CoA), a product of FASN-catalyzed synthesis of palmitate from acetyl-CoA and malonyl-CoA with NADPH as a cofactor. The assay is fluorescence-based and measures the interaction of free CoA with 7-diethylamino-3-(4′-malemimidylphenyl)-4-methylcoumarin (CPM; Life Technologies, CA) as described in Chung et al (2008). The coumarin derivative CPM contains a thiol-reactive maleimide that becomes fluorescent upon interaction with the sulfhydryl group of CoA.
For the example compounds described herein, the reaction was performed in 384-well low volume non-binding plates (Corning, N.Y.) using recombinant human baculovirus-expressed GST-tagged FASN. The 20-μL assay mixture contained 50 mM HEPES (pH 7.5), 5 nM FASN, 150 μM NADPH (Sigma, St. Louis, Mo.), 10 μM acetyl-CoA (Sigma), 25 μM malonyl-CoA (Sigma) and test compound [diluted in dimethyl sulfoxide (DMSO); 0.5% DMSO final in assay after 100 nL addition]. See, Chung et al.; “A fluorescence-based thiol quantification assay for ultra-high-throughput screening for inhibitors of coenzyme A production,” Assay Drug Dev Tech 2008; 6:361-374.
The reaction was initiated by adding malonyl-CoA, followed by incubation for 90 minutes at […]. A stock solution of the CPM reagent was prepared in DMSO at […] and stored at […]. To detect CoA produced in the FASN reaction, the CPM stock was diluted to […] in 70% ethanol and added at 4 μL/well to the assay plate. The reaction mixture was then incubated for 30 minutes. Fluorescence was measured using the EnVision™ 2102 multi-label plate reader (PerkinElmer, Waltham, Mass.) utilizing a general dual mirror, a 390 nm excitation filter and a 530 nm emission filter. Data analysis was performed using ActivityBase (IDBS, Guilford, UK). IC50 values were calculated by plotting the percent inhibition versus log 10 of the concentration of the compound, and fitting to the nonlinear regression sigmoidal dose-response (variable slope) equation in XLFit (IDBS).
Consider `Cc1c(-c2ccc(OC3CCN(C(=O)CO)CC3)cc2)ccc2cccnc12` [Example 626, 2-Hydroxy-1-[4-[4-(8-methyl-7-quinolyl)phenoxy]-1-piperidyl]ethanone], for which the pIC50 was 7.00 to 9.00.

Regarding `Cc1c(-c2ccc(OC3CCN(C(=O)OCCN4CCOCC4)CC3)cc2)ccc2cccnc12` [Example 546, 2-Morpholinoethyl 4-[4-(8-methyl-7-quinolyl)phenoxy]piperidine-1-carboxylate 2HCl], the pIC50 was 5.00 to 6.00.

As for `Cc1c(-c2ccc(OC3CCN(C(=O)NOC(C)C)CC3)cc2)ccc2ccnn12` [Example 537, N-Isopropoxy-4-[4-(7-methylpyrazolo[1,5-a]pyridin-6-yl)phenoxy]piperidine-1-carboxamide], the pIC50 was 7.00 to 9.00.

For the compound `CONC(=O)N1CCC(Oc2ccc(-c3ccc4ccnn4c3C)cc2)CC1` [Example 539, N-Methoxyoxy-4-[4-(7-methylpyrazolo[1,5-a]pyridin-6-yl)phenoxy]piperidine-1-carboxamide], the pIC50 was 7.00 to 9.00.

For `Cc1c(-c2ccc(OC3CCN(C(=O)[C@H](C)N)CC3)cc2)ccc2cccnc12` [Example 612, (2S)-2-Amino-1-[4-[4-(8-methyl-7-quinolyl)phenoxy]-1-piperidyl]propan-1-one 2HCl], the pIC50 is 7.00 to 9.00.

Consider `Cc1c(-c2ccc(OC3CCN(C(=O)CCN)CC3)cc2)ccc2cccnc12` [Example 623, 3-Amino-1-[4-[4-(8-methyl-7-quinolyl)phenoxy]-1-piperidyl]propan-1-one, 2HCl], for which the pIC50 is 5.00 to 6.00.

The assay is the same for the next values; noted with them: 5 nM FASN, 150 μM NADPH, 10 μM acetyl-CoA, 25 μM malonyl-CoA, 90 minutes incubation; read-out: IC50 data for Compounds of Formulae I-V/V(a): Activity.
`CCC(=O)N1CCC(Oc2cccc(-c3cnc4ccccc4c3)c2)CC1` [Example 496, 1-[4-(3-Quinolin-3-yl-phenoxy)-piperidin-1-yl]-propan-1-one]: the pIC50 was 5.00 to 6.00.

With `O=C(C1CC1)N1CCC(Oc2ccc(-c3ccc4cnccc4c3)nc2)CC1` [Example 149, Cyclopropyl-[4-(6-isoquinolin-6-yl-pyridin-3-yloxy)-piperidin-1-yl]-methanone, 2HCl], the pIC50 is 5.00 to 6.00.

Take `Nc1c(-c2ccc(OC3CCN(C(=O)[C@H]4CCCO4)CC3)cc2)ccc2cccnc12` [Example 324, [4-[4-(8-Amino-7-quinolyl)phenoxy]-1-piperidyl]-[(2R)-tetrahydrofuran-2-yl]methanone]: the pIC50 was 7.00 to 9.00.

As for `O=C(C1CC1)N1CCC(Oc2cccc(-c3cnc4ccccc4c3)c2)CC1` [Example 497, Cyclopropyl-[4-(3-quinolin-3-yl-phenoxy)-piperidin-1-yl]-methanone], the pIC50 was 5.00 to 6.00.

In the case of `O=C(C1CC1)N1CCC(Oc2ccc(-c3cnc4cccnc4c3)cc2)CC1` [Example 14, Cyclopropyl-[4-(4-1,5-naphthyridin-3-yl-phenoxy)-piperidin-1-yl]-methanone], the pIC50 was 5.00 to 6.00.

With `CCC(=O)N1CCC(Oc2ccc(-c3cc4ccccc4o3)cc2)CC1` [Example 245, 1-[4-(4-Benzofuran-2-yl-phenoxy)-piperidin-1-yl]-propan-1-one], the pIC50 is 6.00 to 7.00.

`CCC(=O)N1CCC(Oc2ccc(-c3ccc4cccnc4c3Cl)cc2)CC1` [Example 261, 1-{4-[4-(8-Chloroquinolin-7-yl)-phenoxy]-piperidin-1-yl}-propan-1-one]: the pIC50 was 7.00 to 9.00.

In the case of `CC(C)C(=O)N1CCC(Oc2ccc(-c3ccc(C#N)cc3)cc2)CC1` [Example 494, 4′-(1-Isobutyrylpiperidin-4-yloxy)-biphenyl-4-carbonitrile], the pIC50 is 5.00 to 6.00.

In the case of `COc1cc2ncc(-c3ccc(OC4CCN(C(=O)[C@H]5CCCO5)CC4)cc3)cc2cc1F` [Example 446, {4-[4-(6-Fluoro-7-methoxyquinolin-3-yl)-phenoxy]-piperidin-1-yl}-(R)-tetrahydrofuran-2-yl-methanone], the pIC50 was 5.00 to 6.00.

As to `O=C([C@H]1CCCO1)N1CCC(Oc2ccc(-c3ccc4scnc4c3)cc2)CC1` [Example 267, [4-(4-Benzothiazol-5-yl-phenoxy)-piperidin-1-yl]-(R)-tetrahydrofuran-2-yl-methanone, TFA salt], the pIC50 was 7.00 to 9.00.

As for `CCC(=O)N1CCC(Oc2ccc(-c3cnc4ccccc4c3NC)cc2)CC1` [Example 235, 1-{4-[4-(4-Methylaminoquinolin-3-yl)-phenoxy]-piperidin-1-yl}-propan-1-one], the pIC50 was 5.00 to 6.00.

On to `CCC(=O)N1CCC(Oc2ccc(-c3cnc4ccccc4c3N)cc2)CC1` [Example 231, 1-{4-[4-(4-Aminoquinolin-3-yl)-phenoxy]-piperidin-1-yl}-propan-1-one], for which the pIC50 is 5.00 to 6.00.

For `CCC(=O)N1CCC(Sc2ccc(-c3ccc4cccnc4c3)cc2)CC1` [Example 516, 1-(4-((4-(quinolin-7-yl)phenyl)thio)piperidin-1-yl)propan-1-one, HCl], the pIC50 is 7.00 to 9.00.

With `CCC(=O)N1CCC(Oc2ccc(-c3ccc4cnc(Cl)cc4c3)cc2)CC1` [Example 413, 1-{4-[4-(3-Chloroisoquinolin-6-yl)-phenoxy]-piperidin-1-yl}-propan-1-one], the pIC50 was 5.00 to 6.00.

As to `CC(=O)CC(=O)N1CCC(Oc2ccc(-c3cnc4ccccc4c3)cc2)CC1` [Example 242, 1-[4-(4-Quinolin-3-yl-phenoxy)-piperidin-1-yl]-butane-1,3-dione], the pIC50 was 5.00 to 6.00.

Consider `CCC(=O)N1CCC(Oc2ccc(-c3ccc(Oc4ccccc4)cc3)cc2)CC1` [Example 508, 1-[4-(4′-Phenoxybiphenyl-4-yloxy)-piperidin-1-yl]-propan-1-one], for which the pIC50 is 5.00 to 6.00.

For `CCC(=O)N1CCC(Oc2ccc(-c3ccc(OCc4ccccc4)cc3F)cc2)CC1` [Example 504, 1-[4-(4′-Benzyloxy-2′-fluoro-biphenyl-4-yloxy)-piperidin-1-yl]-propan-1-one], the pIC50 is 5.00 to 6.00.

`Cn1ncc2ccc(-c3ccc(OC4CCN(C(=O)C5CCC5)CC4)cc3)cc21` [Example 271, Cyclobutyl-{4-[4-(1-methyl-1H-indazol-6-yl)-phenoxy]-piperidin-1-yl}-methanone, TFA salt]: the pIC50 is 6.00 to 7.00.

`COc1cc2ncc(-c3ccc(OC4CCN(C(=O)[C@H]5CCCO5)CC4)cc3)cc2cc1Cl` [Example 449, {4-[4-(6-Chloro-7-methoxyquinolin-3-yl)-phenoxy]-piperidin-1-yl}-(R)-tetrahydrofuran-2-yl-methanone]: the pIC50 was 5.00 to 6.00.

In the case of `O=C([C@H]1CCCO1)N1CCC(Oc2ccc(-c3ccc4cncn4c3)cc2)CC1` [Example 298, [4-(4-Imidazo[1,5-a]pyridin-6-yl-phenoxy)-piperidin-1-yl]-(R)-tetrahydro-furan-2-yl-methanone], the pIC50 was 7.00 to 9.00.

As for `COc1cc2ncc(-c3ccc(OC4CCN(C(=O)C5CC5)CC4)cc3)cc2cc1C` [Example 442, Cyclopropyl-{4-[4-(7-methoxy-6-methylquinolin-3-yl)-phenoxy]-piperidin-1-yl}-methanone], the pIC50 is 5.00 to 6.00.

For `CCC(=O)N1CCC(Oc2ccc(-c3cc(C)cc4ncccc34)cc2)CC1` [Example 348, 1-(4-(4-(7-methylquinolin-5-yl)phenoxy)piperidin-1-yl)propan-1-one HCl], the pIC50 is 7.00 to 9.00.

Take `CCOC(=O)N1CCC(Oc2ccc(-c3ccc4cccnc4c3C)cc2)CC1` [Example 90, Ethyl 4-[4-(8-methyl-7-quinolyl)phenoxy]piperidine-1-carboxylate]: the pIC50 is 6.00 to 7.00.

For `Cc1c(-c2ccc(OC3CCN(C(N)=O)CC3)cc2)ccc2cccnc12` [Example 97, 4-[4-(8-methyl-7-quinolyl)phenoxy]piperidine-1-carboxamide], the pIC50 is 6.00 to 7.00.

Consider `CCC(=O)N1CCC(Oc2ccc(-c3ccc4cn(C)nc4c3)cc2)CC1` [Example 251, 1-{4-[4-(2-Methyl-2H-indazol-6-yl)-phenoxy]-piperidin-1-yl}-propan-1-one], for which the pIC50 was 6.00 to 7.00.

Regarding `O=C(C1CC1)N1CCC(Oc2ccc(-c3ccc4cccnc4c3OCCN3CCCC3)cc2)CC1` [Example 174, Cyclopropyl-(4-{4-[8-(2-pyrrolidin-1-yl-ethoxy)-quinolin-7-yl]-phenoxy}-piperidin-1-yl)-methanone, HCl], the pIC50 is 5.00 to 6.00.

For the compound `Cc1nccc2cc(-c3ccc(OC4CCN(C(=O)C5CC(F)(F)CO5)CC4)cc3)ccc12` (stereo not shown) [Example 165], the pIC50 is 6.00 to 7.00.

On to `COc1c(-c2ccc(OC3CCN(C(=O)C4CC4)CC3)c(F)c2)ccc2cccnc12` [Example 220, Cyclopropyl-{4-[2-fluoro-4-(8-methoxyquinolin-7-yl)-phenoxy]-piperidin-1-yl}-methanone], for which the pIC50 was 7.00 to 9.00.
